This passage reports EC50 results from US9682976B2, “Protein kinase C inhibitors and uses thereof” (Rigel Pharmaceuticals, Inc., priority 2012, dated 2017).

pEC50: −log10 of the molar value.

As a reminder, the pEC50 is −log10 of the EC50, conventionally taken in molar units. A low value points to a high EC50.

One assay has as its system PKC mediated IL-2 production. Description: IL-2 ELISA, human primary T cell, anti CD3+CD28+. The assay is classed as cell-based. Particulars: Homo sapiens, T-cell, 24 h, human primary T cells stimulated with αCD3 and αCD28, 24 hours. As to the method: Compounds 1-328 were tested in a whole cell functional assay for PKC mediated IL-2 production as follows. Human primary T cell isolation and culture: Human primary T cells were prepared as follows. Whole blood was obtained from a healthy volunteer, mixed 1:1 with PBS, layered on to Ficoll Hypaque (Amersham Pharmacia Biotech, Piscataway, N.J., Catalog #17-1440-03) in 2:1 blood/PBS:ficoll ratio and centrifuged for 30 minutes at 4° C. at 1750 rpm. The cells at the serum: ficoll interface were recovered and washed twice with 5 volumes of PBS. These freshly isolated human peripheral blood mononuclear cells were cultured in Yssel's medium containing 40 U/ml IL2 in a flask pre-coated with […] αCD3 and 5 μg/ml αCD28 (Anti-Human CD3, BD Pharmingen Catalog #555336, Anti-Human CD28, Beckman Coulter Catalog #IM1376). The cells were stimulated for 3-4 days, then transferred to a fresh flask and maintained in RPMI (RPMI-1640 with L-Glutamine; Mediatech, Inc., Herndon Va., cat. #10-040-CM) with 10% FBS and 40 U/ml IL-2. The primary T-cells were then washed twice with PBS to remove the IL-2.
Primary T cell stimulation and IL2 ELISA: Human primary T cells (100,000 cells per well) were pre-incubated with or without test compound in Yssel's medium for 1 hour at 37° C. Cells were then stimulated by transferring them to round-bottom 96-well plates pre-coated with […] αCD3 and 5 μg/ml αCD28. For counter assay, cells were instead stimulated by adding 8× stock solutions of PMA and ionomycin in Yssels (for final concentrations of 0.5 ng/ml PMA and 0.1 uM ionomycin, both from Calbiochem). Cells were incubated at 37° C. for 24 hours before 100 μL supernatants were harvested for quantification of IL-2 by ELISA using Human IL-2 Duoset ELISA Kit from R and D Systems, Cat. # DY202E.
A general note: An ELISA detects its analyte on a solid surface through an enzyme-linked reagent.
`Cn1nnn(-c2cc(Nc3ncc(F)c(N[C@H]4C[C@@H]5CC(F)(F)CN5C(C)(C)C4)n3)c(F)cc2C2CC2)c1=O` [Compound 42, 1-(5-(4-((7S,8aR)-2,2-difluoro-octahydro-5,5-dimethylindolizin-7-ylamino)-5-fluoropyrimidin-2-ylamino)-2-cyclopropyl-4-fluorophenyl)-4-methyl-1H-tetrazol-5(4H)-one] gave a negative logarithm of the EC50 (pEC50) of 5.00 to 6.00.
Regarding `CC1(C)C[C@@H](Nc2nc(Nc3cc(-n4cnnn4)c(C4CC4)cc3F)ncc2F)C[C@@H]2CC(F)(F)CN21` [Compound 43, N^2-(4-cyclopropyl-2-fluoro-5-(1H-tetrazol-1-yl)phenyl)-5-fluoro-N^4-((7S,8aR)-2,2-difluoro-octahydro-5,5-dimethylindolizin-7-yl)pyrimidine-2,4-diamine], the pEC50 was 5.00 to 6.00.
The same measure, in the same setting: the same measure for `Cc1ccc(Nc2ncc(F)c(N[C@H]3C[C@@H]4CC(F)(F)CN4C(C)(C)C3)n2)cc1C#N` [Compound 44, 5-(4-((7S,8aR)-2,2-difluoro-octahydro-5,5-dimethylindolizin-7-ylamino)-5-fluoropyrimidin-2-ylamino)-2-methylbenzonitrile]: 5.00 to 6.00.
Same read-out and setting: with `Cn1nnn(-c2cc(Nc3ncc(F)c(N[C@@H]4C[C@@H]5CC(F)(F)CN5C(C)(C)C4)n3)c(F)cc2C2CC2)c1=O` [Compound 45, 1-(5-(4-((7R,8aR)-2,2-difluoro-octahydro-5,5-dimethylindolizin-7-ylamino)-5-fluoropyrimidin-2-ylamino)-2-cyclopropyl-4-fluorophenyl)-4-methyl-1H-tetrazol-5(4H)-one] the figure was 5.00 to 6.00; with `CC1(C)C[C@H](Nc2nc(Nc3cc(-n4cnnn4)c(C4CC4)cc3F)ncc2F)C[C@@H]2CC(F)(F)CN21` [Compound 46, N^2-(4-cyclopropyl-2-fluoro-5-(1H-tetrazol-1-yl)phenyl)-5-fluoro-N^4-((7R,8aR)-2,2-difluoro-octahydro-5,5-dimethylindolizin-7-yl)pyrimidine-2,4-diamine], 6.00 to 6.30.
In turn, `Cn1nnn(-c2cc(Nc3ncc(F)c(NC4CC5CCCN5C(C)(C)C4)n3)ccc2OC2CCOCC2)c1=O` (stereo not shown) [Compound 51, 1-(5-(5-fluoro-4-(octahydro-5,5-dimethylindolizin-7-ylamino)pyrimidin-2-ylamino)-2-(tetrahydro-2H-pyran-4-yloxy)phenyl)-4-methyl-1H-tetrazol-5(4H)-one] showed a negative-log EC50 (pEC50) of 6.30 to 7.00.
Compound `CC1(C)CC(Nc2nc(Nc3ccc(OC4COC4)c(C#N)c3)ncc2F)CC2CCCN21` (stereo not shown) [Compound 63, 5-(5-Fluoro-4-(octahydro-5,5-dimethylindolizin-7-ylamino)pyrimidin-2-ylamino)-2-(oxetan-3-yloxy)benzonitrile] gave a pEC50 of 6.30 to 7.00.
On the same count and under the same terms, the same measure for `Cn1nnn(-c2cc(Nc3ncc(F)c(N[C@@H]4C[C@@H]5C[C@@H](F)CN5C(C)(C)C4)n3)c(F)cc2C2CC2)c1=O` [Compound 64, 1-(5-(4-((2R,7R,8aR)-2-fluoro-octahydro-5,5-dimethylindolizin-7-ylamino)-5-fluoropyrimidin-2-ylamino)-2-cyclopropyl-4-fluorophenyl)-4-methyl-1H-tetrazol-5(4H)-one]: 6.30 to 7.00; for `Cn1nnn(-c2cc(Nc3ncc(F)c(N[C@H]4C[C@@H]5C[C@@H](F)CN5C(C)(C)C4)n3)c(F)cc2C2CC2)c1=O` [Compound 65, 1-(5-(4-((2R,7S,8aR)-2-fluoro-octahydro-5,5-dimethylindolizin-7-ylamino)-5-fluoropyrimidin-2-ylamino)-2-cyclopropyl-4-fluorophenyl)-4-methyl-1H-tetrazol-5(4H)-one]: 5.00 to 6.00; for `Cn1nnn(-c2cc(Nc3ncc(F)c(N[C@@H]4C[C@@H]5C[C@H](F)CN5C(C)(C)C4)n3)c(F)cc2C2CC2)c1=O` [Compound 67, 1-(5-(4-((2S,7R,8aR)-2-fluoro-octahydro-5,5-dimethylindolizin-7-ylamino)-5-fluoropyrimidin-2-ylamino)-2-cyclopropyl-4-fluorophenyl)-4-methyl-1H-tetrazol-5(4H)-one]: 6.30 to 7.00.
Same read-out and setting: with `Cn1nnn(-c2cc(Nc3ncc(F)c(N[C@@H]4C[C@@H]5C[C@@H](O)CN5C(C)(C)C4)n3)c(F)cc2C2CC2)c1=O` [Compound 68, 1-(5-(4-((2R,7R,8aR)-2-hydroxy-octahydro-5,5-dimethylindolizin-7-ylamino)-5-fluoropyrimidin-2-ylamino)-2-cyclopropyl-4-fluorophenyl)-4-methyl-1H-tetrazol-5(4H)-one] the figure was 6.30 to 7.00; with `CC1C(Nc2nc(Nc3cc(-n4nnn(C)c4=O)c(C4CC4)cc3F)ncc2F)CC(C)(C)N2CCCC12` (stereo not shown) [Compound 69, 1-(5-(5-Fluoro-4-(octahydro-5,5,8-trimethylindolizin-7-ylamino)pyrimidin-2-ylamino)-2-cyclopropyl-4-fluorophenyl)-4-methyl-1H-tetrazol-5(4H)-one], 6.00 to 6.30.
With `Cc1nnnn1-c1cc(Nc2ncc(F)c(NC3CC(C)(C)N4CCCC4C3C)n2)ccc1F` (stereo not shown) [Compound 70, 5-Fluoro-N2-(4-fluoro-3-(5-methyl-1H-tetrazol-1-yl)phenyl)-N4-(octahydro-5,5,8-trimethylindolizin-7-yl)pyrimidine-2,4-diamine], the pEC50 is 5.00 to 6.00.
On the same count and under the same terms, with `CC1(C)C[C@H](Nc2nc(Nc3cc(S(F)(F)(F)(F)F)ccc3F)ncc2F)C[C@@H]2CCCN21` [Compound 71] the figure was 6.00 to 6.30; with `CC1(C)C[C@H](Nc2nc(Nc3cc(F)cc(S(F)(F)(F)(F)F)c3)ncc2F)C[C@@H]2CCCN21` [Compound 72], 6.00 to 6.30.
On the same count and under the same terms, the same measure for `Cn1nnn(-c2cc(Nc3ncc(C#N)c(N[C@@H]4C[C@@H]5CCCN5C(C)(C)C4)n3)c(F)cc2OC(C)(C)CO)c1=O` [Compound 84, 4-((7R,8aS)-octahydro-5,5-dimethylindolizin-7-ylamino)-2-(4-(1-hydroxy-2-methylpropan-2-yloxy)-2-fluoro-5-(4,5-dihydro-4-methyl-5-oxotetrazol-1-yl)phenylamino)pyrimidine-5-carbonitrile]: 6.30 to 7.00; for `Cn1nnn(-c2cc(Nc3ncc(F)c(N[C@@H]4C[C@@H]5CCCN5C(C)(C)C4)n3)c(F)cc2OC(C)(C)CO)c1=O` [Compound 85, 1-(2-(1-hydroxy-2-methylpropan-2-yloxy)-5-(4-((7R,8aS)-octahydro-5,5-dimethylindolizin-7-ylamino)-5-fluoropyrimidin-2-ylamino)-4-fluorophenyl)-4-methyl-1H-tetrazol-5(4H)-one]: 6.30 to 7.00; for `Cn1nnn(-c2cc(Nc3ncc(F)c(N[C@@H]4C[C@@H]5CCCN5C(C)(C)C4)n3)c(F)cc2OC2COC2)c1=O` [Compound 88, 1-(5-(4-((7R,8aS)-octahydro-5,5-dimethylindolizin-7-ylamino)-5-fluoropyrimidin-2-ylamino)-4-fluoro-2-(oxetan-3-yloxy)phenyl)-4-methyl-1H-tetrazol-5(4H)-one]: 6.30 to 7.00.
Same read-out and setting: the same measure for `Cn1nnn(-c2cc(Nc3ncc(F)c(N[C@@H]4C[C@@H]5CCCN5C(C)(C)C4)n3)c(F)cc2O)c1=O` [Compound 89, 1-(5-(4-((7R,8aS)-octahydro-5,5-dimethylindolizin-7-ylamino)-5-fluoropyrimidin-2-ylamino)-4-fluoro-2-hydroxyphenyl)-4-methyl-1H-tetrazol-5(4H)-one]: 5.00 to 6.00; for `Cn1nnn(-c2cc(Nc3ncc(F)c(N[C@@H]4C[C@@H]5CCCN5C(C)(C)C4)n3)c(F)cc2Br)c1=O` [Compound 91, 1-(5-(4-((7R,8aS)-octahydro-5,5-dimethylindolizin-7-ylamino)-5-fluoropyrimidin-2-ylamino)-2-bromo-4-fluorophenyl)-4-methyl-1H-tetrazol-5(4H)-one]: more than 7.00; for `C=Cc1cc(F)c(Nc2ncc(F)c(N[C@@H]3C[C@@H]4CCCN4C(C)(C)C3)n2)cc1-n1nnn(C)c1=O` [Compound 92, 1-(5-(4-((7R,8aS)-octahydro-5,5-dimethylindolizin-7-ylamino)-5-fluoropyrimidin-2-ylamino)-4-fluoro-2-vinylphenyl)-4-methyl-1H-tetrazol-5(4H)-one]: more than 7.00.

The same assay, now with this note: human primary T cells stimulated with αCD3 and αCD28, 24 hours.
Compound `CC(=O)N(C)c1cc(Nc2ncc(F)c(NC3CC(C)(C)N4CCCC4C3C)n2)c(F)cc1C1CC1` (stereo not shown) [Compound 73] gave a pEC50 of 6.30 to 7.00.
Regarding `CC1C(Nc2nc(Nc3cc(N(C)C(=O)N(C)C)c(C4CC4)cc3F)ncc2F)CC(C)(C)N2CCCC12` (stereo not shown) [Compound 74], the pEC50 is 6.30 to 7.00.
`CC1C(Nc2nc(Nc3cc(OC(F)F)c(C4CC4)cc3F)ncc2F)CC(C)(C)N2CCCC12` (stereo not shown) [Compound 75] had a pEC50 of 6.30 to 7.00.
The same measure, in the same setting: with `C[C@@H](O)COc1cc(F)c(Nc2ncc(F)c(N[C@@H]3C[C@@H]4CCCN4C(C)(C)C3)n2)cc1-n1nnn(C)c1=O` [Compound 82] the figure was more than 7.00.
